# Reference: ChEMBL document CHEMBL3751822, “C1C2-linker substituted 1,5-naphthyridine analogues of oxabicyclooctane-linked NBTIs as broad-spectrum antibacterial agents (part 7)” (Medchemcomm, 2015)
# Columns and labels:
# [1] = tested on: Staphylococcus aureus; experiment: Antibacterial activity against Staphylococcus aureus infected in po dosed mouse; format: functional
# [2] = tested on: Staphylococcus aureus; experiment: Antibacterial activity against Staphylococcus aureus infected in iv dosed mouse; format: functional
# [3] = tested on: Staphylococcus aureus; experiment: Antibacterial activity against quinolone-resistant Staphylococcus aureus MS5935 by micro-broth dilution method; format: functional
# [4] = tested on: Staphylococcus aureus; experiment: Antibacterial activity against quinolone-sensitive Staphylococcus aureus MS5935 by micro-broth dilution method; format: functional
# [5] = tested on: Staphylococcus aureus; experiment: Ratio of MIC for quinolone-resistant Staphylococcus aureus MS5935 to MIC for quinolone-sensitive Staphylococcus aureus MS5935; format: functional
# [6] = tested on: Pseudomonas aeruginosa; experiment: Antibacterial activity against Pseudomonas aeruginosa PAO1 by micro-broth dilution method; format: functional; conditions: Pseudomonas aeruginosa, PAO1; read-out: MIC
# [7] = biological target: T1, Voltage-gated inwardly rectifying potassium channel KCNH2 (Homo sapiens, UniProt Q12809); experiment: Inhibition of human ERG expressed in CHO cells by patch express assay; format: cell-based
# [8] = tested on: Enterococcus faecium; experiment: Antibacterial activity against Enterococcus faecium VanA by micro-broth dilution method; format: functional; conditions: Enterococcus faecium, VanA; read-out: MIC
# [9] = tested on: Staphylococcus aureus; experiment: Antibacterial activity against methicillin resistant Staphylococcus aureus OIT971 by micro-broth dilution method; format: functional
# [10] = tested on: Acinetobacter baumannii; experiment: Antibacterial activity against Acinetobacter baumannii IID876 by micro-broth dilution method; format: functional; conditions: Acinetobacter baumannii, IID876; read-out: MIC
# [11] = tested on: Escherichia coli; experiment: Antibacterial activity against Escherichia coli ATCC 25922 by micro-broth dilution method; format: functional; conditions: Escherichia coli, ATCC 25922; read-out: MIC
# [12] = biological target: T1, Voltage-gated inwardly rectifying potassium channel KCNH2; experiment: Displacement of MK499 from human ERG
# [13] = tested on: Staphylococcus aureus; experiment: Antibacterial activity against Staphylococcus aureus Smith by micro-broth dilution method; format: functional
# [14] = tested on: Streptococcus pneumoniae; experiment: Antibacterial activity against Streptococcus pneumoniae IID553 by micro-broth dilution method; format: functional
# [15] = Staphylococcus aureus, po, read-out: ED50
# [16] = Staphylococcus aureus, iv, read-out: ED50
# [17] = Staphylococcus aureus, OIT971, read-out: MIC
# [18] = Staphylococcus aureus, Smith, read-out: MIC
# [19] = Streptococcus pneumoniae, IID553, read-out: MIC
# T1 sequence (Q12809 whole entry): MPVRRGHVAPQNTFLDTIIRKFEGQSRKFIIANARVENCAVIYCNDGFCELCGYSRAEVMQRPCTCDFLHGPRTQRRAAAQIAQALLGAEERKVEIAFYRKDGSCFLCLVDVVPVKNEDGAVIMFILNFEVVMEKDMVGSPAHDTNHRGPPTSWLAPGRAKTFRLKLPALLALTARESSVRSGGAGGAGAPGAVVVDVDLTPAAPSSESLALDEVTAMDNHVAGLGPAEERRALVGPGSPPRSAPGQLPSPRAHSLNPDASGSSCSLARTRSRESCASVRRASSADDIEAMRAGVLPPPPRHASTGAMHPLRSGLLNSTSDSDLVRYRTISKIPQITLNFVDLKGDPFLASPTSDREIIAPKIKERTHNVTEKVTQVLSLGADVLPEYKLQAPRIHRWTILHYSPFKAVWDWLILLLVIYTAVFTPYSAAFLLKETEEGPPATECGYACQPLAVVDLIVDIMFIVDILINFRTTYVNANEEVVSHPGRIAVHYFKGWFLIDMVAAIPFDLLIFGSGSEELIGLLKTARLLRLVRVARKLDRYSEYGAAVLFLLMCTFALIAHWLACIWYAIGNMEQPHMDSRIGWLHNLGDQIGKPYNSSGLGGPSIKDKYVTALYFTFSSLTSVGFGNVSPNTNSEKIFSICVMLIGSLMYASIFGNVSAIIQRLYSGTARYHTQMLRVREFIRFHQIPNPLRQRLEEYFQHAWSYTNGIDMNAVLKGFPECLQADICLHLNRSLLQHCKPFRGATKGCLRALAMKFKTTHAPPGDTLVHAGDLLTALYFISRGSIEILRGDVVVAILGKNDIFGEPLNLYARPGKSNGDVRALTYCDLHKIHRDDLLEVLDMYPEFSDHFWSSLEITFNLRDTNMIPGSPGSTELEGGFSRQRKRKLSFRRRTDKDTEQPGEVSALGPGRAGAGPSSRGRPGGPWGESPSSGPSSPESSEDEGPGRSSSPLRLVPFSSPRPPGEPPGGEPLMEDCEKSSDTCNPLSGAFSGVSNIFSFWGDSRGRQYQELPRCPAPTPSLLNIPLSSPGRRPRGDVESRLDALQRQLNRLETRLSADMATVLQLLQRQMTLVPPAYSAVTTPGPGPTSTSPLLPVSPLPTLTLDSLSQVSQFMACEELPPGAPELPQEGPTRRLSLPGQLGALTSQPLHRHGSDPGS
SMILES,ED50 [1],ED50 [2],"ED50 [1, 15]","ED50 [2, 16]",Ratio [5],MIC [6],MIC [8],MIC [10],MIC [11],IC50 [12],also measured
"COc1ccc2ncc(F)c(CC(N)C34CCC(NCc5ccc6c(n5)NC(=O)CO6)(CC3)CO4)c2n1.Cl (single isomer, unassigned; (+))",50 mg/kg,25 mg/kg,,,,,,,,,
COc1ccc2ncc(F)c(C[C@H](O)C34CCC(NCc5ccc6c(n5)NC(=O)CO6)(CC3)CO4)c2n1.Cl,,,2.2 mg/kg,2.5 mg/kg,,,,,,,
C[C@H]1COc2c(N3CCN(C)CC3)c(F)cc3c(=O)c(C(=O)O)cn1c23.C[C@H]1COc2c(N3CCN(C)CC3)c(F)cc3c(=O)c(C(=O)O)cn1c23.O [LEVOFLOXACIN],,,,,>64,,,,,,MIC [3]: > 16 µg/mL; MIC [4]: 0.26 µg/mL
COc1ccc2ncc(F)c(C(=O)CC34CCC(NCc5ccc6c(n5)NC(=O)CO6)(CC3)CO4)c2n1,,,,,<4,32 µg/mL,2 µg/mL,1 µg/mL,4 µg/mL,1.2 µM,"IC50 [7]: 3.7 µM; MIC [9, 17]: 0.06 µg/mL; MIC [13, 18]: 0.06 µg/mL; MIC [14, 19]: 0.25 µg/mL"
"COc1ccc2ncc(F)c(C(O)CC34CCC(NCc5ccc6c(n5)NC(=O)CO6)(CC3)CO4)c2n1.Cl (single isomer, unassigned; (+))",,,6.4 mg/kg,5.9 mg/kg,,,,,,,
"COc1ccc2ncc(F)c(C(O)CC34CCC(NCc5ccc6c(n5)NC(=O)CO6)(CC3)CO4)c2n1 (single isomer, unassigned; (+))",,,,,<4,16 µg/mL,4 µg/mL,1 µg/mL,8 µg/mL,4 µM,MIC [9]: 0.13 µg/mL; MIC [13]: 0.13 µg/mL; MIC [14]: 1 µg/mL
COc1ccc2ncc(F)c([C@@H](O)[C@H](O)C34CCC(NCc5ccc6c(n5)NC(=O)CO6)(CC3)CO4)c2n1,,,,,<4,32 µg/mL,8 µg/mL,2 µg/mL,16 µg/mL,60 µM,"MIC [9, 17]: 0.25 µg/mL; MIC [13, 18]: 0.25 µg/mL; MIC [14, 19]: 2 µg/mL"
COc1ccc2ncc(F)c(CC(=O)C34CCC(NCc5ccc6c(n5)NC(=O)CO6)(CC3)CO4)c2n1.Cl,,,6.4 mg/kg,5.1 mg/kg,,,,,,,
"COc1ccc2ncc(F)c(C(O)CC34CCC(NCc5ccc6c(n5)NC(=O)CO6)(CC3)CO4)c2n1.Cl (single isomer, unassigned; (-))",4.8 mg/kg,3.7 mg/kg,,,,,,,,,
COc1ccc2ncc(F)c(CC(N)C34CCC(NCc5ccc6c(n5)NC(=O)CO6)(CC3)CO4)c2n1.Cl (stereo in doubt),21 mg/kg,11 mg/kg,,,,,,,,,
